Measured values taken from patent publication US20250064844A1 (Emory University, priority 2020, published 2025).
Where two headings read alike, the source gives them in different places.

What was measured:
Vero cells = experiment: Cell uptake and metabolism of EIDD-2801 in Vero cells; conditions: intracellular analyte; Vero cells incubated with 20 μM EIDD-2801, 1-24 hours
[1] = human, in vivo
SARS-CoV2 = experiment: microbe, parasite or virus in culture; assay type: cell-based; conditions: Severe acute respiratory syndrome coronavirus 2, Vero
CEM cells = experiment: Cell uptake and metabolism of EIDD-2801 in CEM cells; conditions: intracellular analyte; CEM cells incubated with EIDD-2801 (40 μM solution prepared), 1-24 hours
clinical = conditions: human, in vivo; for AUC(0-inf): AUCinf
SARS [2] = experiment: organism not typed; assay type: cell-based; conditions: Vero C1008
Huh-7 cells = experiment: Cell uptake and metabolism of EIDD-2801 in Huh-7 cells; conditions: intracellular analyte; Huh-7 cells incubated with 20 μM EIDD-2801, 1-24 hours
HCoV = experiment: organism not typed; assay type: cell-based; conditions: Vero C1008
[3] = cynomolgus monkey, in vivo, po
HepG2 cells = experiment: Cell uptake and metabolism of EIDD-2801 in HepG2 cells; conditions: intracellular analyte; HepG2 cells incubated with 20 μM EIDD-2801, 1-24 hours
SARS [4] = experiment: organism not typed; assay type: cell-based; conditions: Vero C1008, SARS; Vero E6

## O=c1nc(NO)ccn1C1OC(CO)C(O)C1O (stereo not shown) [EIDD-1931, 1-(3,4-dihydroxy-5-(hydroxymethyl)tetrahydrofuran-2-yl)-4-(hydroxyamino)pyrimidin-2-one]
Vero cells
  AUC0−>t: 228.6 pmol · h/M cells
  Cmax: 13.5 pmol/M Cells
[1]
  Slope (90% Confidence Interval) of power model, AUCinf: 1.07 (1.02, 1.13)
  Slope (90% Confidence Interval) of power model, AUClast: 1.09 (1.03, 1.15)
  Slope (90% Confidence Interval) of power model, Cmax: 1.01 (0.927, 1.08)
  Slope of power model, AUCinf: 1.10
  Slope of power model, AUClast: 1.11
  Slope of power model, AUCt: 1.08
  delay of median tmax, capsule vs solution formulation: up to 0.75 hours
  dose excreted in urine as EIDD-1931: 0.854-3.61%
  geometric mean accumulation ratio based on AUCt: 0.938-1.16
  geometric mean accumulation ratio based on Cmax: 0.843-1.10
  geometric mean ratio of AUCinf, capsule (multiple-dose cohorts Day 1) vs solution (single-dose cohorts): 0.91-1.09
  geometric mean ratio of Cmax, capsule vs solution formulation: 0.76-1.00
[1]; 50 mg
  RAcmax (accumulation ratio): 0.843
[1]; 100 mg
  RAcmax (accumulation ratio): 1.10
[1]; 200 mg
  FEAUC/inf (ratio of AUCinf fed:fasted): 0.955
  FECmax (ratio of Cmax fed:fasted): 0.644
  RAcmax (accumulation ratio): 0.969
  mean Cmax lower in the fed state compared to the fasted state: approximately 36%
[1]; 300 mg
  RAcmax (accumulation ratio): 0.861
[1]; 400 mg
  RAcmax (accumulation ratio): 0.962
[1]; 600 mg
  RAcmax (accumulation ratio): 1.04
[1]; 800 mg
  RAcmax (accumulation ratio): 1.09
  t1/2: 7.08¶ h
SARS-CoV2
  EC50: 300 nM
CEM cells
  AUC0−>t: 5.8 pmol · h/M cells
  Cmax: 0.3 pmol/M Cells
clinical; 50 mg
  AUC(0-inf): 461 ng·h/mL
  Cmax: 223 ng/mL
clinical; 50 mg, AUClast
  AUC(0-t): 444 ng·h/mL
clinical; 50 mg, AUCt
  AUC(0-t): 461 ng·h/mL
clinical; 50 mg, t1/2
  half-life: 0.937 h
clinical; 50 mg, tmax
  Tmax: 1 h
clinical; 100 mg
  AUC(0-inf): 855 ng·h/mL
  Cmax: 395 ng/mL
clinical; 100 mg, AUClast
  AUC(0-t): 835 ng·h/mL
clinical; 100 mg, AUCt
  AUC(0-t): 854 ng·h/mL
clinical; 100 mg, t1/2
  half-life: 0.918 h
clinical; 100 mg, tmax
  Tmax: 1.25 h
clinical; 200 mg
  AUC(0-inf): 1660 ng·h/mL
  Cmax: 742 ng/mL
clinical; 200 mg, AUClast
  AUC(0-t): 1720 ng·h/mL
clinical; 200 mg, AUCt
  AUC(0-t): 1730 ng·h/mL
clinical; 200 mg, t1/2
  half-life: 1.09 h
clinical; 200 mg, tmax
  Tmax: 1.5 h
clinical; 300 mg
  AUC(0-inf): 3090 ng·h/mL
  Cmax: 1100 ng/mL
clinical; 300 mg, AUClast
  AUC(0-t): 2980 ng·h/mL
clinical; 300 mg, AUCt
  AUC(0-t): 2960 ng·h/mL
clinical; 300 mg, t1/2
  half-life: 1.71 h
clinical; 300 mg, tmax
  Tmax: 1.5 h
clinical; 400 mg
  AUC(0-inf): 3800 ng·h/mL
  Cmax: 1470 ng/mL
clinical; 400 mg, AUClast
  AUC(0-t): 3730 ng·h/mL
clinical; 400 mg, AUCt
  AUC(0-t): 3710 ng·h/mL
clinical; 400 mg, t1/2
  half-life: 1.2 h
clinical; 400 mg, tmax
  Tmax: 1.5 h
clinical; 600 mg
  AUC(0-inf): 6680 ng·h/mL
  Cmax: 2240 ng/mL
clinical; 600 mg, AUClast
  AUC(0-t): 7250 ng·h/mL
clinical; 600 mg, AUCt
  AUC(0-t): 7110 ng·h/mL
clinical; 600 mg, t1/2
  half-life: 1.16 h
clinical; 600 mg, tmax
  Tmax: 1.75 h
clinical; 800 mg
  AUC(0-inf): 8200 ng·h/mL
  Cmax: 2970 ng/mL
clinical; 800 mg, AUClast
  AUC(0-t): 8450 ng·h/mL
clinical; 800 mg, AUCt
  AUC(0-t): 8330 ng·h/mL
clinical; 800 mg, tmax
  Tmax: 1.5 h
clinical; mean t1/2
  half-life: 0.918 to 1.18 h
clinical; median tmax
  Tmax: 1 to 1.75 h
clinical; po, 50 mg
  AUC(0-inf): 432 ng·h/mL
  Cmax: 223 ng/mL
clinical; po, 50 mg, AUClast
  AUC(0-t): 415 ng·h/mL
clinical; po, 50 mg, t1/2
  half-life: 0.945 h
clinical; po, 50 mg, tmax (median)
  Tmax: 1 h
clinical; po, 100 mg
  AUC(0-inf): 932 ng·h/mL
  Cmax: 454 ng/mL
clinical; po, 100 mg, AUClast
  AUC(0-t): 917 ng·h/mL
clinical; po, 100 mg, t1/2
  half-life: 0.907 h
clinical; po, 100 mg, tmax (median)
  Tmax: 1 h
clinical; po, 200 mg
  AUC(0-inf): 1830 ng·h/mL
  Cmax: 926 ng/mL
clinical; po, 200 mg, AUClast
  AUC(0-t): 1810 ng·h/mL
clinical; po, 200 mg, t1/2
  half-life: 1.02 h
clinical; po, 200 mg, tmax (median)
  Tmax: 1 h
clinical; po, 400 mg
  AUC(0-inf): 4010 ng·h/mL
  Cmax: 1850 ng/mL
clinical; po, 400 mg, AUClast
  AUC(0-t): 4000 ng·h/mL
clinical; po, 400 mg, t1/2
  half-life: 1.03 h
clinical; po, 400 mg, tmax (median)
  Tmax: 1 h
clinical; po, 600 mg
  AUC(0-inf): 6130 ng·h/mL
  Cmax: 2720 ng/mL
clinical; po, 600 mg, AUClast
  AUC(0-t): 6120 ng·h/mL
clinical; po, 600 mg, t1/2
  half-life: 1.06 h
clinical; po, 600 mg, tmax (median)
  Tmax: 1 h
clinical; po, 800 mg
  AUC(0-inf): 8740 ng·h/mL
  Cmax: 3640 ng/mL
clinical; po, 800 mg, AUClast
  AUC(0-t): 8720 ng·h/mL
clinical; po, 800 mg, t1/2
  half-life: 1.29 h
clinical; po, 800 mg, tmax (median)
  Tmax: 1 h
clinical; po, 1200 mg
  AUC(0-inf): 13800 ng·h/mL
  Cmax: 4500 ng/mL
clinical; po, 1200 mg, AUClast
  AUC(0-t): 13800 ng·h/mL
clinical; po, 1200 mg, t1/2
  half-life: 1.81 h
clinical; po, 1200 mg, tmax (median)
  Tmax: 1.75 h
clinical; po, 1600 mg
  AUC(0-inf): 20700 ng·h/mL
  Cmax: 6350 ng/mL
clinical; po, 1600 mg, AUClast
  AUC(0-t): 20700 ng·h/mL
clinical; po, 1600 mg, t1/2
  half-life: 4.59 h
clinical; po, 1600 mg, tmax (median)
  Tmax: 1.5 h
clinical; po, geometric mean terminal elimination half-lives (t1/2)
  half-life: 0.91 to 1.29 h
clinical; po, median tmax
  Tmax: 1 h
SARS [2]
  EC90: < 800 nM
Huh-7 cells
  AUC0−>t: 449.2 pmol · h/M cells
  Cmax: 29.0 pmol/M Cells
HCoV
  EC50: < 400 nM
[3]
  bioavailability: low bioavailability
HepG2 cells
  AUC0−>t: 249.8 pmol · h/M cells
  Cmax: 13.4 pmol/M Cells
SARS [4]
  EC50: < 800 nM
